From PMC11556746, “Anchorage of bacterial effector at plasma membrane via selective phosphatidic acid binding to modulate host cell signaling” (PLOS Pathogens, 2024)

Target: T1, BepE-BID1 (Bartonella henselae, UniProt A0A0R4J6H0)
T1 construct: gene BH13420; first BID domain (BID1) of BepE, His-tagged, expressed in E. coli, Ni-NTA
Assay: metasurface plasmon resonance (SPR), immobilised protein
Format: binding
Details: lipid presented in liposomes (PC:POPA, 90% PC and 10% POPA); HBS-ET buffer

T1 sequence (A0A0R4J6H0 entry or part of it): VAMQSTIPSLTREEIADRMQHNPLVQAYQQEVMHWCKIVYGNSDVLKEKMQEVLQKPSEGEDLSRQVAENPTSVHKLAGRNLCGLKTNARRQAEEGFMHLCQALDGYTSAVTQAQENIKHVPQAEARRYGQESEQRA

For `CCCCCCCC/C=C\CCCCCCCC(=O)O[C@H](COC(=O)CCCCCCCCCCCCCCC)COP(=O)(O)O` [POPA], the Kd was roughly 349 nM.
